Columns and labels:
[1] = tested on: HBV; assay: Anti-HBV activity: HBV DNA in culture medium by qPCR, HepG2.2.15 cells; assay type: cell-based; details: Hepatitis B virus, 144 h, 6 days treatment
Description: (§1) HepG2.2.15 (the HepG2.2.15 cell line can be produced by transfection of the HepG2 cell line as described in Sells, Chen, and Acs 1987 (Proc. Natl. Acad. Sci. USA 84: 1005-1009), and the HepG2 cell line is available from ATCC® under number HB-8065™)
(§2) HepG2.2.15 cells were plated into 96-well plate in 2% FBS culture medium at the density of 40,000 cells/well and 5,000 cells/well for HBV inhibitory activity and cytotoxicity determination, respectively. After incubation at 37° C., 5% CO2 overnight, cells were treated with medium containing compounds for 6 days with medium and compounds refreshed after 3 days of treatment. Each compound was tested in a 1:3 serial dilutions at 8 different concentrations in triplicate. The highest concentration of the compounds was 10 uM or 1 uM for anti-HBV activity assay and 100 uM for cytotoxicity determination.
The change of HBV DNA level induced by the compounds was assessed by quantitative real-time polymerase chain reaction (qPCR). Briefly, the HBV DNA in the culture medium was extracted using QIAamp 96 DNA Blood Kit according to the manual and then quantified by real-time PCR assay using the primers and probe in the table 1 below.
(§3) EC50 and CC50 values are calculated by the GRAPHPAD PRISM software.

[2] = Cytotoxicity determination by CCK-8 assay, HepG2.2.15 cells; assay type: cell-based; details: human, 6 days treatment
Description: as §1, §2
Cell viability was determined by CCK-8 assay. After 6 days of compounds treatment, 20 μl CCK-8 reagents were added to each well of cytotoxicity assay plates. Cell plates were incubated at 37° C., 5% CO2 for 2.5 h. The absorbance at 450 nm wavelength and the absorbance at 630 nm wavelength as reference was measured.
as §3

Row | Compound | EC50 [1] [nM] | CC50 at 6 days [2] [nM]
1 | COC(=O)C1=C(C23C4C5C2C2C3C4C52C(=O)O)NC(c2nccn2C)=NC1c1ccc(F)c(F)c1Cl (single isomer, unassigned) [Ia-2, (R*)-4-(6-(2-chloro-3,4-difluorophenyl)-5-(methoxycarbonyl)-2-(1-methyl-1H-imidazol-2-yl)-3,6-dihydropyrimidin-4-yl)cubane-1-carboxylic Acid] | > 100000 | 295
2 | COC(=O)C1=C(C23C4C5C2C2C3C4C52C(=O)O)NC(c2nccs2)=N[C@@H]1c1ccc(F)c(F)c1C (single isomer, unassigned) [Ia-3] | > 50000 | 45
3 | CCOC(=O)C1=C(C23C4C5C2C2C3C4C52C(=O)O)NC(c2nccn2C)=NC1c1ccc(F)c(F)c1Cl (single isomer, unassigned) [Ia-4, (R*)-4-(6-(2-chloro-3,4-difluorophenyl)-5-(ethoxycarbonyl)-2-(1-methyl-1H-imidazol-2-yl)-3,6-dihydropyrimidin-4-yl)cubane-1-carboxylic Acid] | > 50000 | 55
4 | CCOC(=O)C1=C(C23C4C5C2C2C3C4C52C(=O)O)NC(c2nccs2)=NC1c1ccc(F)cc1C (single isomer, unassigned) [Ia-5, (R*)-4-(5-(ethoxycarbonyl)-6-(4-fluoro-2-methylphenyl)-2-(thiazol-2-yl)-3,6-dihydropyrimidin-4-yl)cubane-1-carboxylic Acid] | > 50000 | 43
5 | CCOC(=O)C1=C(C23C4C5C2C2C3C4C52C(=O)O)NC(c2nccs2)=N[C@H]1c1ccc(F)cc1Br (single isomer, unassigned) [Ia-6, (R*)-4-(6-(2-bromo-4-fluorophenyl)-5-(ethoxycarbonyl)-2-(thiazol-2-yl)-3,6-dihydropyrimidin-4-yl)cubane-1-carboxylic Acid] | > 12500 | 11.5
6 | COC(=O)C1=C(C23C4C5C2C2C3C4C52CC(=O)O)NC(c2nccs2)=N[C@@H]1c1ccc(F)cc1Cl (single isomer, unassigned) [Ib-1, 2-((1S,2R,3R,8S)-4-((S*)-6-(2-chloro-4-fluorophenyl)-5-(methoxycarbonyl)-2-(thiazol-2-yl)-3,6-dihydropyrimidin-4-yl)cuban-1-yl)acetic Acid] | 42000 | 360
7 | COC(=O)C1=C(C23C4C5C2C2C3C4C52c2nc(C(=O)O)co2)NC(c2nccs2)=N[C@@H]1c1ccc(F)cc1Cl (single isomer, unassigned) [Ib-2, 2-((1R,2R,3R,8S)-4-((S*)-6-(2-chloro-4-fluoro-phenyl)-5-(methoxycarbonyl)-2-(thiazol-2-yl)-3,6-dihydropyrimidin-4-yl)cuban-1-yl)oxazole-4-carboxylic Acid] | 24000 | 110
8 | COC(=O)C1=C(C23C4C5C2C2C3C4C52C(=O)O)NC(c2nccs2)=N[C@@H]1c1ccc(F)cc1Cl (single isomer, unassigned) [Ib-3, (1R,2R,3R,8S)-4-((S*)-6-(2-chloro-4-fluorophenyl)-5-(methoxycarbonyl)-2-(thiazol-2-yl)-3,6-dihydropyrimidin-4-yl)cubane-1-carboxylic Acid] | 70000 | 84
9 | COC(=O)C1=C(C23C4C5C2C2C3C4C52C(=O)O)NC(c2nccs2)=N[C@@H]1c1ccc(F)c(F)c1Cl (single isomer, unassigned) [Ib-4, (1R,2R,3R,8S)-4-((S*)-6-(2-chloro-3,4-difluorophenyl)-5-(methoxycarbonyl)-2-(thiazol-2-yl)-3,6-dihydropyrimidin-4-yl)cubane-1-carboxylic Acid] | 51000 | 22
10 | CCOC(=O)C1=C(C23C4C5C2C2C3C4C52C(=O)O)NC(c2nccs2)=N[C@H]1c1cccc(F)c1C (single isomer, unassigned) [Ib-5, (1R,2R,3R,8S)-4-((S*)-5-(ethoxycarbonyl)-6-(3-fluoro-2-methylphenyl)-2-(thiazol-2-yl)-3,6-dihydropyrimidin-4-yl)cubane-1-carboxylic Acid] | 49000 | 17
11 | COC(=O)C1=C(C23C4C5C2C2C3C4C52C(=O)O)NC(c2nccs2)=N[C@@H]1c1cccc(F)c1Cl (single isomer, unassigned) [Ib-8, (1S,2R,3S,8S)-4-((S*)-6-(2-chloro-3-fluorophenyl)-5-(methoxycarbonyl)-2-(thiazol-2-yl)-3,6-dihydropyrimidin-4-yl)cubane-1-carboxylic Acid] | > 50000 | 132
12 | CCCOC(=O)C1=C(C23C4C5C2C2C3C4C52C(=O)O)NC(c2nccs2)=NC1c1ccc(F)c(F)c1Cl (single isomer, unassigned) [Ib-11, (S*)-4-(6-(2-chloro-3,4-difluorophenyl)-5-(propoxycarbonyl)-2-(thiazol-2-yl)-3,6-dihydropyrimidin-4-yl)cubane-1-carboxylic Acid] | 22000 | 52
13 | CC(C)OC(=O)C1=C(C23C4C5C2C2C3C4C52C(=O)O)NC(c2nccs2)=NC1c1ccc(F)c(F)c1Cl (single isomer, unassigned) [Ib-12, (S*)-6-(6-Carboxy-cuban-3-yl)-4-(2-chloro-3,4-difluoro-phenyl)-2-thiazol-2-yl-1,4-dihydro-pyrimidine-5-carboxylic Acid Isopropyl Ester] | 28000 | 37
14 | CCOC(=O)C1=C(C23C4C5C2C2C3C4C52C(=O)O)NC(c2ncc(F)cc2F)=NC1c1cccc(F)c1C (single isomer, unassigned) [Ib-18, (S*)-4-(2-(3,5-difluoropyridin-2-yl)-5-(ethoxycarbonyl)-6-(3-fluoro-2-methylphenyl)-3,6-dihydropyrimidin-4-yl)cubane-1-carboxylic Acid] | > 12500 | 61
15 | CCOC(=O)C1=C(C23C4C5C2C2C3C4C52C(=O)O)NC(c2nccs2)=N[C@@H]1c1cccc(F)c1Br (single isomer, unassigned) [Ib-19, (1S,2R,3S,8S)-4-((S*)-6-(2-bromo-3-fluorophenyl)-5-(ethoxycarbonyl)-2-(thiazol-2-yl)-3,6-dihydropyrimidin-4-yl)cubane-1-carboxylic Acid] | > 25000 | 12.5
16 | CCOC(=O)C1=C(C23C4C5C2C2C3C4C52C(=O)O)NC(c2nccs2)=NC1c1ccc(F)c(F)c1F (single isomer, unassigned) [Ib-20, (S*)-4-(5-(ethoxycarbonyl)-2-(thiazol-2-yl)-6-(2,3,4-trifluorophenyl)-3,6-dihydropyrimidin-4-yl)cubane-1-carboxylic Acid] | 46000 | 28
17 | COC(=O)C1=C(C23C4C5C2C2C3C4C52C(=O)O)NC(c2nccs2)=NC1c1ccc(F)cc1C (single isomer, unassigned) [Ib-21, (S*)-4-(6-(4-fluoro-2-methylphenyl)-5-(methoxycarbonyl)-2-(thiazol-2-yl)-3,6-dihydropyrimidin-4-yl)cubane-1-carboxylic Acid] | > 50000 | 250
18 | CCOC(=O)C1=C(C23C4C5C2C2C3C4C52C(=O)O)NC(c2nccs2)=NC1c1ccc(Cl)c(F)c1 (single isomer, unassigned) [Ib-23, (S*)-4-(6-(4-chloro-3-fluorophenyl)-5-(ethoxycarbonyl)-2-(thiazol-2-yl)-3,6-dihydropyrimidin-4-yl)cubane-1-carboxylic Acid] | > 6250 | 13
19 | COC(=O)C1=C(C23C4C5C2C2C3C4C52C(=O)O)NC(c2ncc(F)cc2F)=NC1c1cccc(F)c1C (single isomer, unassigned) [Ib-26, (S*)-4-(2-(3,5-difluoropyridin-2-yl)-5-(methoxycarbonyl)-6-(3-fluoro-2-methylphenyl)-3,6-dihydropyrimidin-4-yl)cubane-1-carboxylic Acid] | > 12500 | 160
20 | CCOC(=O)C1=C(C23C4C5C2C2C3C4C52CC(C)(C)C(=O)O)NC(c2nccs2)=N[C@@H]1c1ccc(F)c(F)c1Cl (single isomer, unassigned) [Ib-28, (S*)-3-(4-(6-(2-chloro-3,4-difluorophenyl)-5-(ethoxycarbonyl)-2-(thiazol-2-yl)-3,6-dihydropyrimidin-4-yl)cuban-1-yl)-2,2-dimethylpropanoic Acid] | 16000 | 26.5
21 | COC(=O)C1=C(C23C4C5C2C2C3C4C52C(=O)O)NC(c2nccs2)=N[C@@H]1c1cccc(F)c1C (stereo in doubt) [Ia-1, (2R,3R,5R,6R,7R,8R)-4-((R*)-6-(3-fluoro-2-methylphenyl)-5-(methoxycarbonyl)-2-(thiazol-2-yl)-3,6-dihydropyrimidin-4-yl)cubane-1-carboxylic Acid] | > 50000 | 204
22 | CCOC(=O)C1=C(C23C4C5C2C2C3C4C52C(=O)O)NC(c2nccs2)=N[C@@H]1c1ccc(F)cc1Cl (stereo in doubt) [Ib-6, (2S,3S,5S,6S,7S,8S)-4-((S*)-6-(2-chloro-4-fluorophenyl)-5-(ethoxycarbonyl)-2-(thiazol-2-yl)-3,6-dihydropyrimidin-4-yl)cubane-1-carboxylic Acid] | > 50000 | 18
